Experimental findings from patent US7459444B2, “Inhibitors of chymase” (Janssen Pharmaceutica N.V., priority 2004, dated 2008) are described below.

This experiment has as its target T1, human skin chymase (Homo sapiens, UniProt P23946).
T1 construct: using human skin chymase (Cortex Biochem); purchased Cortex Biochem
T1 sequence (P23946 22-247): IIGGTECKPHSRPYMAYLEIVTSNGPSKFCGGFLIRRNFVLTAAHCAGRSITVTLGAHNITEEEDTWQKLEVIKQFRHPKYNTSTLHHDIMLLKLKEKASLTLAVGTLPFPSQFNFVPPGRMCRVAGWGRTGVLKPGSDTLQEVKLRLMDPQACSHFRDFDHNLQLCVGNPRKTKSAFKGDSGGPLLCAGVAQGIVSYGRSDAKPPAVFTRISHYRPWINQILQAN
Put plainly: Enzyme-catalyzed hydrolysis assay (chymase inhibition). As to conditions: 10 nM enzyme, 0.7 mM Suc-Ala-Ala-Pro-Phe-pNa, pH 8.0, 37° C., 30 minutes. The format is biochemical. How it is done:
Enzyme-catalyzed hydrolysis rates were measured spectro-photometrically using human skin chymase (Cortex Biochem), a chromogenic substrate (Suc-Ala-Ala-Pro-Phe-pNa) (Bachem) in aqueous buffer (450 mM Tris, 1800 mM NaCl, pH 8.0), and a microplate reader (Molecular Devices). […] Percent inhibition was calculated by comparing the initial reaction slopes of the samples without inhibitor to those with inhibitor. IC50 values were determined using a four parameter fit logistics model. The term “NT” indicates a compound that was not tested.
In the case of `COc1ccc(C2CCN(C(=O)c3sc4ccccc4c3C(C(=O)Nc3ccc4ccccc4c3)P(C)(=O)O)CC2)cc1` (stereo not shown) [Cpd 35], the IC50 – broadly, the point on the concentration scale where inhibition reaches its midpoint – was 0.235 ± 0.045 µM.

`O=C(Nc1cc2ccccc2cc1OCc1ccccc1)C(c1cccc2ccccc12)P(=O)(O)O` (stereo not shown) [Cpd 122, [(3-Benzyloxy-naphthalen-2-ylcarbamoyl)-naphthalen-1-yl-methyl]-phosphonic acid] showed a 50% inhibitory concentration (IC50) of 5.94 ± 1.69 µM.

In turn, `O=C(Nc1ccc2ccccc2c1)C(c1csc2ccc(Cl)cc12)P(=O)(O)CCCCc1ccccc1` (stereo not shown) [Cpd 51] displayed an IC50 of 0.46 ± 0.06 µM.

`CC1CCCC(NCc2cc3ccccc3cc2NC(=O)C(c2cccc3ccccc23)P(=O)(O)O)C1` (stereo not shown) [Cpd 90] came in with an IC50 of 2.15 µM.

`O=C(Nc1cc2ccccc2cc1CNC1CCCCC1)C(c1cccc2ccccc12)P(=O)(O)O` (stereo not shown) [Cpd 70, [(3-Cyclohexylaminomethyl-naphthalen-2-ylcarbamoyl)-naphthalen-1-yl-methyl]-phosphonic acid] had a half-maximal inhibitory concentration (IC50) of 0.93 ± 0.07 µM.

Compound `Nc1cc2ccccc2cc1NC(=O)C(c1cccc2ccccc12)P(=O)(O)O` (stereo not shown) [Cpd 132] showed an IC50 of 7.9 µM.

`O=C(Nc1ccc2ccccc2c1)C(c1csc2ccc(Cl)cc12)P(=O)(O)CCCc1ccc(O)cc1` (stereo not shown) [Cpd 43] returned a half-inhibitory concentration (IC50) of 0.35 ± 0.07 µM.

On to `Cn1cc(C(C(=O)Nc2ccc3ccccc3c2)P(=O)(O)O)c2cccc(Cl)c21` (stereo not shown) [Cpd 58], for which 0.63 ± 0.13 µM corresponded to half-maximal inhibition (IC50).

As for `O=C(Nc1ccccc1)Oc1cc2ccccc2cc1NC(=O)C(c1cccc2ccccc12)P(=O)(O)O` (stereo not shown) [Cpd 95, [Naphthalen-1-yl-(3-phenylcarbamoyloxy-naphthalen-2-yl-carbamoyl)-methyl]-phosphonic acid], the IC50 is 2.8 µM. This IC50 is about 4.4-fold higher than that of the compound before.

Take `CP(=O)(O)C(C(=O)N/C=C/c1cc(Cl)cc(Cl)c1)c1csc2ccc(Cl)cc12` (stereo not shown) [Cpd 170]: the IC50 came to 0.0031 µM.

As to `Cn1cc(C(C(=O)Nc2ccc3ccccc3c2)P(=O)(O)O)c2ccc(Cl)cc21` (stereo not shown) [Cpd 52], it took 0.48 ± 0.18 µM to reach half-maximal inhibition (IC50).

Consider `O=C(O)C(C(=O)Nc1ccc2ccccc2c1)c1csc2ccc(Cl)cc12` (stereo not shown) [Cpd 84, [(5-Chloro-benzo[b]thiophen-3-yl)-(naphthalen-2-ylcarbamoyl)-methyl]-carboxylic acid], for which the 50% inhibitory concentration (IC50) came to 1.75 ± 0.285 µM.

As to `O=C(Nc1ccc2ccccc2c1)C(c1csc2ccc(Br)cc12)P(=O)(O)O` (stereo not shown) [Cpd 23, [(5-Bromo-benzo[b]thiophen-3-yl)-(naphthalen-2-ylcarbamoyl)-methyl]-phosphonic acid], the IC50 was found to be 0.1 ± 0.03 µM.

As for `O=C(NCc1ccccc1)OCc1cc2ccccc2cc1NC(=O)C(c1cccc2ccccc12)P(=O)(O)O` (stereo not shown) [Cpd 72, [(3-Benzylcarbamoyloxymethyl-naphthalen-2-ylcarbamoyl)-naphthalen-1-yl-methyl]-phosphonic acid], it took 1.3 ± 0.61 µM to reach half-maximal inhibition (IC50).

In the case of `CP(=O)(O)C(C(=O)N/C=C/c1cccc(F)c1F)c1csc2ccc(Cl)cc12` (stereo not shown) [Cpd 163], the IC50 is 0.017 µM.

Compound `O=C(Nc1ccc2cc(Br)ccc2c1)C(c1csc2ccc(Cl)cc12)P(=O)(O)O` (stereo not shown) [Cpd 67] returned a 50% inhibitory concentration (IC50) of 0.92 ± 0.25 µM.

Consider `Cn1cc(C(C(=O)Nc2ccc3ccccc3c2)P(=O)(O)O)c2cc(C(=O)O)ccc21` (stereo not shown) [Cpd 56, 1-Methyl-3-[(naphthalen-2-ylcarbamoyl)-phosphono-methyl]-1H-indole-5-carboxylic acid], for which half-maximal inhibition (IC50) required 0.606 ± 0.13 µM.

“[(5-Chloro-benzo[b]thiophen-3-yl)-(naphthalen-2-ylcarbamoyl)-methyl]-carbamate [Cpd 80]” yielded an IC50 of 1.65 ± 0.68 µM.

On to `CN(CCc1ccccc1)Cc1cc2ccccc2cc1NC(=O)C(c1cccc2ccccc12)P(=O)(O)O` (stereo not shown) [Cpd 126], for which the IC50 came to 7 µM.

In turn, `CP(=O)(O)C(C(=O)N/C=C/c1cccc(Br)c1)c1csc2ccc(Cl)cc12` (stereo not shown) [Cpd 167] gave a concentration for half-maximal inhibition (IC50) of 0.017 ± 0.04 µM.

Consider `COc1ccc(CCCP(=O)(O)C(C(=O)Nc2ccc3ccccc3c2)c2csc3ccc(Cl)cc23)cc1` (stereo not shown) [Cpd 53], for which the IC50 was found to be 0.49 ± 0.16 µM. This IC50 is about 29-fold higher than that of the compound before.

For the compound `O=C(Nc1ccc2ccsc2c1)C(c1cccc2ccccc12)P(=O)(O)O` (stereo not shown) [Cpd 59], the midpoint of inhibition, the IC50, lay at 0.635 µM. That is a sub-micromolar value.

On to `O=C(Nc1ccc2ccccc2c1)C(c1csc2cccc(Br)c12)P(=O)(O)O` (stereo not shown) [Cpd 99], for which the half-maximal inhibitory concentration (IC50) turned out to be 2.96 ± 1.18 µM. Compared with the last compound, the IC50 is about 4.7-fold higher.

For the compound `O=C(Nc1ccc2ncccc2c1)C(c1cccc2ccccc12)P(=O)(O)O` (stereo not shown) [Cpd 79], inhibition was half-maximal at 1.6 µM (IC50).

For the compound `O=C(Nc1cc2ccccc2cc1C(=O)N1CCC(c2ccccc2)CC1)C(c1cccc2ccccc12)P(=O)(O)O` (stereo not shown) [Cpd 101], it took 3.12 µM to reach half-maximal inhibition (IC50).

In turn, `O=C(Nc1ccc2ccccc2c1)C(c1cc2ccccc2s1)P(=O)(O)O` (stereo not shown) [Cpd 140, [(Benzo[b]thiophen-2-yl)-(naphthalen-2-ylcarbamoyl)-methyl]-phosphonic acid] gave an IC50 of 9.2 ± 0.73 µM.

With `CP(=O)(O)C(C(=O)Nc1ccc2ccccc2c1)c1c(C(=O)N2CCC(c3ccccc3)CC2)sc2ccccc12` (stereo not shown) [Cpd 32, Methyl-{(naphthalen-2-ylcarbamoyl)-[2-(4-phenyl-piperidine-1-carbonyl)-benzo[b]thiophen-3-yl]-methyl}-phosphinic acid], the half-inhibitory concentration (IC50) amounted to 0.21 ± 0.01 µM.

For the compound `NS(=O)(=O)OCC(C(=O)Nc1ccc2ccccc2c1)c1csc2ccc(Cl)cc12` (stereo not shown) [Cpd 120, Sulfamic acid 2-(5-chloro-benzo[b]thiophen-3-yl)-2-(naphthalen-2-ylcarbamoyl)-ethyl ester], half-maximal inhibition (IC50) required 5.86 ± 1.08 µM.

`CN(Cc1ccccc1)Cc1cc2ccccc2cc1NC(=O)C(c1cccc2ccccc12)P(=O)(O)O` (stereo not shown) [Cpd 142] gave an IC50 of 9.54 ± 4.2 µM.

On to `O=C(Nc1cc2ccccc2cc1CNC1CCCC1)C(c1cccc2ccccc12)P(=O)(O)O` (stereo not shown) [Cpd 124], for which the concentration for half-maximal inhibition (IC50) was determined as 6.7 µM.

For `O=C(N/C=C/c1cccnc1)C(c1csc2ccc(Cl)cc12)P(=O)(O)O` (stereo not shown) [Cpd 25], the concentration for half-maximal inhibition (IC50) amounted to 0.109 ± 0.03 µM.

`Cn1cc(C(C(=O)Nc2ccc3ccccc3c2)P(=O)(O)O)c2c(Cl)cccc21` (stereo not shown) [Cpd 63, [(4-Chloro-1-methyl-1H-indol-3-yl)-(naphthalen-2-ylcarbamoyl)-methyl]-phosphonic acid]: the IC50 is 0.83 ± 0.18 µM.

Turning to `O=C(Nc1ccc2sccc2c1)C(c1csc2ccc(Cl)cc12)P(=O)(O)O` (stereo not shown) [Cpd 55], the half-maximal inhibitory concentration (IC50) amounted to 0.52 ± 0.51 µM.

As for `O=C(Nc1ccc2ccccc2c1)C(CO)c1csc2ccc(Cl)cc12` (stereo not shown) [Cpd 136, 2-(5-Chloro-benzo[b]thiophen-3-yl)-3-hydroxy-N-naphthalen-2-yl-propionamide], it took 8.63 ± 0.81 µM to reach half-maximal inhibition (IC50). This IC50 is about 17-fold higher than that of the compound before.

For `CP(=O)(O)C(C(=O)N/C=C/c1ccc(F)cc1)c1csc2ccc(Cl)cc12` (stereo not shown) [Cpd 24], half-maximal inhibition (IC50) required 0.1 ± 0.033 µM.

In the case of `CN(Cc1cc2ccccc2cc1NC(=O)C(c1cccc2ccccc12)P(=O)(O)O)C1CCN(C(=O)c2ccc3ccccc3c2)CC1` (stereo not shown) [Cpd 102, {[3-({Methyl-[1-(naphthalene-2-carbonyl)-piperidin-4-yl]-amino}-methyl)-naphthalen-2-ylcarbamoyl]-naphthalen-1-yl-methyl}-phosphonic acid], the IC50 was 3.45 µM.

Compound `O=C(Nc1ccc2ccccc2c1)C(c1cn(CC=Cc2ccccc2)c2ccccc12)P(=O)(O)O` (stereo not shown) [Cpd 27] showed a concentration for half-maximal inhibition (IC50) of 0.13 ± 0.02 µM. Against the preceding compound, the IC50 is about 27-fold lower.

Consider `CC(C)OC(=O)c1cc2ccccc2cc1NC(=O)C(c1cccc2ccccc12)P(=O)(O)O` (stereo not shown) [Cpd 139], for which the midpoint of inhibition, the IC50, lay at 8.8 µM.

Turning to `CP(=O)(O)C(C(=O)Nc1ccc2ccccc2c1)c1c(C(=O)O)sc2ccccc12` (stereo not shown) [Cpd 118], inhibition was half-maximal at 5.72 ± 0.013 µM (IC50). This IC50 is about 1.5-fold lower than that of the compound before.

As to `O=C(NCc1ccccc1)c1cc2ccccc2cc1NC(=O)C(c1cccc2ccccc12)P(=O)(O)O` (stereo not shown) [Cpd 119, [(3-Benzylcarbamoyl-naphthalen-2-ylcarbamoyl)-naphthalen-1-yl-methyl]-phosphonic acid], the IC50 came out at 5.8 µM.

In turn, `Cn1cc(C(C(=O)Nc2ccc3ccccc3c2)P(=O)(O)O)c2cc(F)ccc21` (stereo not shown) [Cpd 11] gave a half-maximal inhibitory concentration (IC50) of 0.037 ± 0.01 µM. Against the preceding compound, the IC50 is about 160-fold lower.

In the case of `Cn1cc(C(C(=O)Nc2ccc3ccccc3c2)P(=O)(O)O)c2cc(-c3ccc(F)cc3)ccc21` (stereo not shown) [Cpd 98, [[5-(4-Fluoro-phenyl)-1-methyl-1H-indol-3-yl]-(naphthalen-2-ylcarbamoyl)-methyl]-phosphonic acid], half-maximal inhibition (IC50) required 2.9 µM. Against the preceding compound, the IC50 is about 78-fold higher.

In turn, `O=C(Nc1ccc2ccccc2c1)C(c1csc2ccc(-c3ccccc3)cc12)P(=O)(O)O` (stereo not shown) [Cpd 71, [(5-phenyl-benzo[b]thiophen-3-yl)-(naphthalen-2-ylcarbamoyl)-methyl]-phosphonic acid] came in with an IC50 of 1 ± 0.3 µM.

On to `O=C(Nc1cnc2ccccc2c1)C(c1cccc2ccccc12)P(=O)(O)O` (stereo not shown) [Cpd 57], for which half-maximal inhibition (IC50) was put at 0.609 µM.

The compound `Cn1cc(C(C(=O)N/C=C/c2cccc(F)c2)P(C)(=O)O)c2cc(Cl)ccc21` (stereo not shown) [Cpd 6] had an IC50 of 0.02 µM.

`CP(=O)(O)C(C(=O)NC=Cc1ccc(Cl)cc1)c1csc2ccc(Cl)cc12` (stereo not shown) [Cpd 78] came in with a half-inhibitory concentration (IC50) of 1.5 ± 0.43 µM. Compared with the last compound, the IC50 is about 75-fold higher.

In turn, `O=C(Nc1ccc2ccccc2n1)C(c1cccc2ccccc12)P(=O)(O)O` (stereo not shown) [Cpd 96] returned a 50% inhibitory concentration (IC50) of 2.8 µM.

In turn, `COC(=O)COc1cc2ccccc2cc1NC(=O)C(c1cccc2ccccc12)P(=O)(O)O` (stereo not shown) [Cpd 123] registered a half-inhibitory concentration (IC50) of 6.6 µM. This IC50 is about 2.4-fold higher than that of the compound before.

Turning to `O=C(Nc1cc2ccccc2cc1CNCCCCCO)C(c1cccc2ccccc12)P(=O)(O)O` (stereo not shown) [Cpd 133], the IC50 is 8.08 ± 3.15 µM.

The compound `O=C(C=Cc1cc2ccccc2cc1NC(=O)C(c1cccc2ccccc12)P(=O)(O)O)NCc1ccccc1` (stereo not shown) [Cpd 109, {[3-(2-Benzylcarbamoyl-vinyl)-naphthalen-2-ylcarbamoyl]-naphthalen-1-yl-methyl}-phosphonic acid] registered an IC50 of 4.4 µM.

For the compound `COc1cc(/C=C/NC(=O)C(c2csc3ccc(Cl)cc23)P(C)(=O)O)cc(OC)c1` (stereo not shown) [Cpd 168], inhibition was half-maximal at 0.0059 ± 0.01 µM (IC50). Against the preceding compound, the IC50 is about 750-fold lower.

For the compound `CN(CCCC1c2ccccc2C=Cc2ccccc21)Cc1cc2ccccc2cc1NC(=O)C(c1cccc2ccccc12)P(=O)(O)O` (stereo not shown) [Cpd 112], inhibition was half-maximal at 4.74 ± 1.65 µM (IC50).
